Consider 12 compounds from patent US20250092002A1, “FLUORINATED CATIONIC LIPIDS FOR USE IN LIPID NANOPARTICLES” (Acuitas Therapeutics, Inc., priority 2021, published 2025).

Data set [1] in a line: Determination of pKa of formulated lipids (TNS fluorescence assay in lipid nanoparticles). The settings on record: probe 2-(p-toluidino)-6-napthalene sulfonic acid (TNS), 1 µM final, cationic lipid formulated in lipid nanoparticles (cationic lipid/DSPC/cholesterol/PEG-lipid 47.5/10/40.7/1.8 mol %), read-out: pKa. The format is physicochemical. As to the method: As described elsewhere, the pKa of formulated cationic lipids is correlated with the effectiveness of LNPs for delivery of nucleic acids (see Jayaraman et al, Angewandte Chemie, International Edition (2012), 51(34), 8529-8533; Semple et al, Nature Biotechnology 28, 172-176 (2010)). The preferred range of pKa is ˜5 to ˜7. The pKa of each cationic lipid was determined in lipid nanoparticles using an assay based on fluorescence of 2-(p-toluidino)-6-napthalene sulfonic acid (TNS). Lipid nanoparticles comprising cationic lipid/DSPC/cholesterol/PEG-lipid (47.5/10/40.7/1.8 mol %) in PBS at a concentration of 0.4 mM total lipid were prepared using the in-line process as described in Example 1. TNS was prepared as a 100 μM stock solution in distilled water. Vesicles were diluted to 24 μM lipid in 2 mL of buffered solutions containing, 10 mM HEPES, 10 mM MES, 10 mM ammonium acetate, 130 mM NaCl, where the pH ranged from 2.5 to 11. An aliquot of the TNS solution was added to give a final concentration of 1 μM and following vortex mixing fluorescence intensity was measured at room temperature in a SLM Aminco Series 2 Luminescence Spectrophotometer using excitation and emission wavelengths of 321 nm and 445 nm. A sigmoidal best fit analysis was applied to the fluorescence data and the pKa was measured as the pH giving rise to half-maximal fluorescence intensity.

The test system of data set [2] is luciferase expression in the liver. Put plainly: In vivo luciferase mRNA expression rodent model (liver luciferase after tail vein injection of mRNA-LNP). Further details: species or system mice. The following applies: for Liver Luc (ng luc/g liver), determined at 0.3 mg/kg: 0.3 mg/kg (footnote *); for Liver Luc (ng luc/g liver), determined at 0.3 mg/kg / Liver Luc (ng luc/g liver), determined at 1.0 mg/kg / Liver Luc @ 0.5 mg/kg (ng luc/g liver): tail vein injection, liver 4 hours after administration; for efficacy toward activation of the Luciferase mRNA expression as compared with non-fluorinated analogue: 0.3 mg/kg and 1.0 mg/kg, versus I-5 analogue and I-11 analogue respectively; for Liver Luc @ 0.5 mg/kg (ng luc/g liver): 0.5 mg mRNA/kg. As to the method:
Lipid nanoparticles were prepared and tested according to the general procedures described in PCT Pub. Nos. WO 2015/199952 and WO 2017/004143, the full disclosures of which are incorporated herein by reference. Briefly, cationic lipid, DSPC, cholesterol and PEG-lipid were solubilized in ethanol at a molar ratio of about 50:10:38.5:1.5 or about 47.5:10:40.7:1.8. Lipid nanoparticles (LNP) were prepared at a total lipid to mRNA weight ratio of approximately 10:1 to 40:1. The mRNA is diluted to 0.2 mg/mL in 10 to 50 mM citrate or acetate buffer, pH 4. Syringe pumps were used to mix the ethanolic lipid solution with the mRNA aqueous solution at a ratio of about 1:5 to 1:3 (vol/vol) with total flow rates above 15 mL/min. The ethanol was then removed and the external buffer replaced with PBS by dialysis. Finally, the lipid nanoparticles were filtered through a 0.2 µm pore sterile filter. Lipid nanoparticle particle size was approximately 55-95 nm diameter, and in some instances approximately 70-90 nm diameter as determined by quasi-elastic light scattering using a Malvern Zetasizer Nano ZS (Malvern, UK).
Studies were performed in 6-8 week old female C57BL/6 mice (Charles River) or 8-10 week old CD-1 (Harlan) mice (Charles River) according to guidelines established by an institutional animal care committee (ACC) and the Canadian Council on Animal Care (CCAC). Varying doses of mRNA-lipid nanoparticle were systemically administered by tail vein injection and animals euthanized at a specific time point (e.g., 4 hours) post-administration. Liver and spleen were collected in pre-weighed tubes, weights determined, immediately snap frozen in liquid nitrogen and stored at −80° C. until processing for analysis.
For liver, approximately 50 mg was dissected for analyses in a 2 mL FastPrep tubes (MP Biomedicals, Solon OH). ¼″ ceramic sphere (MP Biomedicals) is added to each tube and 500 μL of Glo Lysis Buffer—GLB (Promega, Madison WI) equilibrated to room temperature is added to liver tissue. Liver tissues were homogenized with the FastPrep24 instrument (MP Biomedicals) at 2×6.0 m/s for 15 seconds. Homogenate was incubated at room temperature for 5 minutes prior to a 1:4 dilution in GLB and assessed using SteadyGlo Luciferase assay system (Promega). Specifically, 50 μL of diluted tissue homogenate was reacted with 50 μL of SteadyGlo substrate, shaken for 10 seconds followed by 5 minute incubation and then quantitated using a CentroXS^3 LB 960 luminometer (Berthold Technologies, Germany). The amount of protein assayed was determined by using the BCA protein assay kit (Pierce, Rockford IL). Relative luminescence units (RLU) were then normalized to total μg protein assayed. To convert RLU to ng luciferase a standard curve was generated with QuantiLum Recombinant Luciferase (Promega).
The FLuc mRNA (L-6107 or L-7202) from Trilink Biotechnologies will express a luciferase protein, originally isolated from the firefly, Photimus pyralis. FLuc is commonly used in mammalian cell culture to measure both gene expression and cell viability. It emits bioluminescence in the presence of the substrate, luciferin. This capped and poly-adenylated mRNA was fully substituted with respect to uridine and/or cytidine nucleosides.
Representative compounds of the disclosure shown in Table 2 were formulated using the following molar ratio: 50% cationic lipid/10% distearoylphosphatidylcholine (DSPC)/38.5% Cholesterol/1.5% PEG lipid 2-[2-(ω-methoxy(polyethyleneglycol2000)ethoxy]-N,N-ditetradecylacetamide) or 47.5% cationic lipid/10% DSPC/40.7% Cholesterol/1.8% PEG lipid. Relative activity was determined by measuring luciferase expression in the liver 4 hours following administration via tail vein injection as described in Example 1. The activity was compared at a dose of 1.0 or 0.5 or 0.3 mg mRNA/kg and expressed as ng luciferase/g liver measured 4 hours after administration, as described in Example 1. Compound numbers in Table 2 refer to the compound numbers of Table 1. […]

The pKa is the negative logarithm of the acid dissociation constant.

Marks after values point to notes of the source that are not given here.

In the case of `CCCCC(CC)COC(=O)CCCCCCCCC(CCCCCCCCC(=O)OCC(CC)CCCC)N(CCCCN(C)C)C(=O)C(F)(F)C(F)(F)C(F)(F)C(F)(F)C(F)(F)C(F)(F)C(F)(F)F` (stereo not drawn) [Compound I-5, BIS(2-ETHYLHEXYL) 10-(N-(4-(DIMETHYLAMINO)BUTYL)-2,2,3,3,4,4,5,5,6,6,7,7,8,8,8-PENTADECAFLUOROOCTANAMIDO)NONADECANEDIOATE], the pKa in data set [1] was 5.92. In addition, in data set [2], the “Liver Luc (ng luc/g liver), determined at 0.3 mg/kg” value (“Liver Luc … at 0.3 mg/kg” for short) amounted to 3645 ± 1347 ng luc/g liver; the “efficacy toward activation of the Luciferase mRNA expression as compared with non-fluorinated analogue” value was “increased efficacy”; the “Liver Luc (ng luc/g liver), determined at 1.0 mg/kg” value (shortened to “Liver Luc … at 1.0 mg/kg”) turned out to be 21585 ± 6204 ng luc/g liver.
Regarding `CCCCCCCCC(CCCCCC)COC(=O)CCCCCC(CCCCCC(=O)OCC(CCCCCC)CCCCCCCC)N(CCCCN(C)C)C(=O)C(F)(F)C(F)(F)C(F)(F)C(F)(F)C(F)(F)C(F)(F)C(F)(F)F` (stereo not drawn) [Compound I-7, BIS(2-HEXYLDECYL) 7-(N-(4-(DIMETHYLAMINO)BUTYL)-2,2,3,3,4,4,5,5,6,6,7,7,8,8,8-PENTADECAFLUOROOCTANAMIDO)TRIDECANEDIOATE], the pKa in data set [1] was found to be 6.08. The “Liver Luc @ 0.5 mg/kg (ng luc/g liver)” value in data set [2] is 39 ± 14 ng luc/g liver.
On to `CCCCCCCCC(CCCCCC)COC(=O)CCCCCC(CCCCCC(=O)OCC(CCCCCC)CCCCCCCC)N(CCN1CCN(C)CC1)C(=O)C(F)(F)C(F)(F)C(F)(F)C(F)(F)C(F)(F)C(F)(F)C(F)(F)F` (stereo not drawn) [Compound I-8, BIS(2-HEXYLDECYL) 7-(2,2,3,3,4,4,5,5,6,6,7,7,8,8,8-PENTADECAFLUORO-N-(2-(4-METHYLPIPERAZIN-1-YL)ETHYL)OCTANAMIDO)TRIDECANEDIOATE], for which, in data set [1], the pKa was found to be 5.58. In addition, the “Liver Luc @ 0.5 mg/kg (ng luc/g liver)” value in data set [2] turned out to be 0 ng luc/g liver.
For `CCCCCCCCC(CCCCCC)COC(=O)CCCCCC(CCCCCC(=O)OCC(CCCCCC)CCCCCCCC)N(CCCCCN(C)C)C(=O)C(F)(F)C(F)(F)C(F)(F)C(F)(F)C(F)(F)C(F)(F)C(F)(F)F` (stereo not drawn) [Compound I-9, BIS(2-HEXYLDECYL) 7-(N-(5-(DIMETHYLAMINO)PENTYL)-2,2,3,3,4,4,5,5,6,6,7,7,8,8,8-PENTADECAFLUOROOCTANAMIDO)TRIDECANEDIOATE] the same measures were 6.32 and 25 ± 16 ng luc/g liver.
Regarding `CCCCCCC(CCCC)COC(=O)CCCCCC(CCCCCC(=O)OCC(CCCC)CCCCCC)N(CCCCN(C)C)C(=O)C(F)(F)C(F)(F)C(F)(F)C(F)(F)C(F)(F)C(F)(F)C(F)(F)F` (stereo not drawn) [Compound I-10, BIS(2-BUTYLOCTYL) 7-(N-(4-(DIMETHYLAMINO)BUTYL)-2,2,3,3,4,4,5,5,6,6,7,7,8,8,8-PENTADECAFLUOROOCTANAMIDO)TRIDECANEDIOATE], the pKa in data set [1] was determined as 6.18. In addition, the “Liver Luc @ 0.5 mg/kg (ng luc/g liver)” value in data set [2] turned out to be 62 ± 44 ng luc/g liver.
In the case of `CCCCCCC(CCCC)COC(=O)CCCCCC(CCCCCC(=O)OCC(CCCC)CCCCCC)N(CCCCCN(C)C)C(=O)C(F)(F)C(F)(F)C(F)(F)C(F)(F)C(F)(F)C(F)(F)C(F)(F)F` (stereo not drawn) [Compound I-11, BIS(2-BUTYLOCTYL) 7-(N-(5-(DIMETHYLAMINO)PENTYL)-2,2,3,3,4,4,5,5,6,6,7,7,8,8,8-PENTADECAFLUOROOCTANAMIDO)TRIDECANEDIOATE], in data set [1], the pKa came to 6.28. Further, in data set [2], the “Liver Luc … at 0.3 mg/kg” value is 3411 ± 803* ng luc/g liver; the “efficacy toward activation of the Luciferase mRNA expression as compared with non-fluorinated analogue” value is “increased efficacy”; the “Liver Luc … at 1.0 mg/kg” value came to 45575 ± 11088 ng luc/g liver.
For `CCCCCCCCC(CCCCCC)COC(=O)CCCCCC(CCCCCC(=O)OCC(CCCCCC)CCCCCCCC)N(CCCN(C)C)C(=O)CC(F)(F)F` (stereo not drawn) [Compound I-12, BIS(2-HEXYLDECYL) 7-(N-(3-(DIMETHYLAMINO)PROPYL)-3,3,3-TRIFLUOROPROPANAMIDO)TRIDECANEDIOATE], the pKa in data set [1] turned out to be 6.22. In data set [2], the “Liver Luc … at 0.3 mg/kg” value is 138 ± 64* ng luc/g liver and the “Liver Luc … at 1.0 mg/kg” value was determined as 559 ± 207 ng luc/g liver.
For `CCCCCCCCC(CCCCCC)COC(=O)CCCCCC(CCCCCC(=O)OCC(CCCCCC)CCCCCCCC)N(CCCN(C)C)C(=O)CCCC(F)(F)F` (stereo not drawn) [Compound I-13, BIS(2-HEXYLDECYL) 7-(N-(3-(DIMETHYLAMINO)PROPYL)-5,5,5-TRIFLUOROPENTANAMIDO)TRIDECANEDIOATE], in data set [1], the pKa turned out to be 6.68. The “Liver Luc @ 0.5 mg/kg (ng luc/g liver)” value in data set [2] is on record as 658 ± 262 ng luc/g liver.
For `CCCCCCCCC(CCCCCC)COC(=O)CCCCCCCCC(CCCCCCCCC(=O)OCC(CCCCCC)CCCCCCCC)N(CCCN(C)C)C(=O)CCCC(F)(F)F` (stereo not drawn) [Compound I-14, BIS(2-HEXYLDECYL) 10-(N-(3-(DIMETHYLAMINO)PROPYL)-5,5,5-TRIFLUOROPENTANAMIDO)NONADECANEDIOATE], the pKa in data set [1] was 6.28. Besides, the “Liver Luc @ 0.5 mg/kg (ng luc/g liver)” value in data set [2] was 331 ± 127 ng luc/g liver.
On to `CCCCCCC(CCCC)COC(=O)CCCCCC(CCCCCC(=O)OCC(CCCC)CCCCCC)N(CCCN(C)C)C(=O)CCCC(F)(F)F` (stereo not drawn) [Compound I-15, BIS(2-BUTYLOCTYL) 7-(N-(3-(DIMETHYLAMINO)PROPYL)-5,5,5-TRIFLUOROPENTANAMIDO)TRIDECANEDIOATE], for which the pKa in data set [1] worked out at 6.78. The “Liver Luc @ 0.5 mg/kg (ng luc/g liver)” value in data set [2] was 1007 ± 671 ng luc/g liver.
Turning to `CCCCCCC(CCCC)COC(=O)CCCCCC(CCCCCC(=O)OCC(CCCC)CCCCCC)N(CCN(C)C)C(=O)CCCC(F)(F)F` (stereo not drawn) [Compound I-16, BIS(2-BUTYLOCTYL) 7-(N-(2-(DIMETHYLAMINO)ETHYL)-5,5,5-TRIFLUOROPENTANAMIDO)TRIDECANEDIOATE], in data set [1], the pKa amounted to 5.97. Moreover, the “Liver Luc @ 0.5 mg/kg (ng luc/g liver)” value in data set [2] is 1233 ± 305 ng luc/g liver.
Consider `CCCCCCCC(F)C(=O)N(CCCN1CCCC1)C(CCCCCCCCC(=O)OCC(CCCC)CCCCCC)CCCCCCCCC(=O)OCC(CCCC)CCCCCC` (stereo not drawn) [Compound I-22, BIS(2-BUTYLOCTYL) 10-(2-FLUORO-N-(3-(PYRROLIDIN-1-YL)PROPYL)NONANAMIDO)NONADECANEDIOATE], for which, in data set [1], the pKa came to 5.96. In data set [2], the “Liver Luc … at 0.3 mg/kg” value is 10062 ± 2580 ng luc/g liver and the “Liver Luc … at 1.0 mg/kg” value was 82847 ± 27713 ng luc/g liver.
